In patent US11497813B2, “Bortezomib conjugates and methods using same” (Frank EBETINO et al., priority 2015, dated 2022):

System: UPS activation
Experiment: Ub^G76V-GFP reporter cells (GFP+ cells) in osteoclast cultures and on pre-incubated bone slices
Format: cell-based, mouse
Conditions: BM cells from Ub^G76V-GFP mice on bone slices pre-incubated with compound
Description: FIG. 5A is a scheme of an exemplary synthesis of compound BP-Btz1. FIG. 5B is a series of images of bone slices pre-incubated with 1 μM BP-Btz1, Btz, or bisphosphonate (BP) overnight. Drug solutions were removed and bone slices were washed with PBS extensively. […] (BM) cells from UB^G76V-GFP mice were cultured on bone slices in the presence of M-CSF and RANKL for 9 days. Top images (a): GFP^+ cells were observed under a fluorescence microscope and GFP signal intensity was quantified. Middle images (b): bone slices were fixed and subjected to TRAP staining for osteoclasts (OCs). OC #/slice were counted. Bottom images (c): cells were removed from slices. Toluidine blue staining was performed and pit areas/slice were counted. FIG. 5C is a series of images of murine BM cells cultured and stained for ALP. FIG. 5D is a series of images of human MSCs cultured and stained for ALP. Murine BM cells and human MSCs were cultured in the OB-inducing medium plus different concentrations of BP-Btz1 or Btz for 4 or 6 days, respectively. Cells were stained for ALP. The ALP^+ areas were measured by Image J. *P<0.05 vs. Btz-treated cells.
1. Ub^G76V-GFP mice in B6 background (Stock #008111, Jax lab) are generated using previously described methods (Lindsten et al., 2003, Nat. Biotech. 21:897-902). The Ub^G76V-GFP transgene was designed with a chicken beta-actin promoter and CMV immediate early enhancer upstream of a GFP fused to a mutant ubiquitin moiety (Ub^G76V), a constitutively active proteasome degradation signal. Following proteasome inhibitor administration, Ub^G76V accumulates and GFP fluorescence is readily apparent. GFP^+ OCs were detected at 4 and 8 hrs after adding Btz to OC cultures, which disappeared at 24 hrs. […] 2. OC formation and resorption assays and data analyses are performed as described herein (FIG. 4) and using previously described methods (Zhang et al., 2014, J. Clin. Invest. 124:3200-3214; Xiu et al., 2014, J. Clin. Invest. 124:297-310). […] The number and area of OCs and resorption pits are assessed. The appearance, intensity and distribution of GFP^+ cells on bone slices and plastic surrounding bone slices during OC formation is observed and recorded. 3. OB differentiation. Third passages of BM stromal cells are used as MPCs, as previously described (Shu et al., 2013, J. Bone Min. Res. 28:1925-1935; Zhang et al., 2014, J. Clin. Invest. 124:3200-3214). MPCs are cultured on plastic plates in OB-inducing medium±BP-Btz conjugates, Btz or BP (0.1-100 nM) for 1-3 wks. Plates are subjected to alkaline phosphatase (ALP) and alizarin red staining, and qPCR analyses. Area of ALP^+ and mineralized bone nodule, and the expression levels of OB marker genes (ALP, osteocalcin, Runx2) are measured. GFP^+ cells during OB differentiation are observed as in OCs. In a parallel experiment, human MSCs (from Lonza) are treated with BP-Btz, Btz, or BP in OB-inducing medium and their effects examined on OB differentiation as show in FIGS. 5C and 5D. 4. Western blot/Ub assays. OCPs or MPCs are treated with a preferred dose of leading BP-Btz, Btz and BP. OCP lysates are subjected to Western blot using α-NF-κB members and TRAF6 Abs. OB lysates are subjected to Western blot with α-ubiquitin, Runx2, or JunB Abs, and Ub assays using UbiQapture matrix (Biomol) to pull down Ub-proteins followed by α-Runx2 and JunB Abs using previously described methods (Zhao et al., 2010, J. Bone Min. Res. 25:1246-1256; Zhao et al., 2011, Stem cells 29:1601-1610).

## NCC(P(=O)(O)O)P(=O)(O)O [BP]
  GFP+ cells on pre-incubated bone slices: not
